tested on: apyrase; test: Screen for apyrase inhibitors (Method 1, in vitro phosphate-release absorbance assay); format: biochemical; details: inhibitor conc at 1 mM stock, 1 hr room temperature, absorbance 630 nm; rounded average of two assay results
Summary of the method: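 Phosphate-release colorimetric assay (Windsor method) in 60 mM Hepes, 3 mM MgCl2, 3 mM CaCl2, 3 mM ATP, pH 6.5, with compound or DMSO control added. Released phosphate developed with ammonium molybdate and ascorbic acid/TCA, then stopped with citrate/acetic acid.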

Row | SMILES | % Inhibition of Apyrase [%]
1 | Nc1c(Cl)cc(NC(=O)c2cccc(S(=O)(=O)N3CCc4ccccc43)c2)cc1Cl [I-439, N-(4-amino-3,5-dichlorophenyl)-3-(indolin-1-ylsulfonyl)benzamide] | 63
2 | COc1ccc(S(=O)(=O)N2CCc3ccccc32)cc1C(=O)Nc1ccc(OC(F)F)c(Cl)c1 [I-440, N-(3-chloro-4-(difluoromethoxy)phenyl)-5-(indolin-1-ylsulfonyl)-2-methoxybenzamide] | 62
3 | O=C(c1cccc(S(=O)(=O)Nc2cccc(C(F)(F)F)c2)c1)N1CCCc2ccccc21 [I-441, 3-(1,2,3,4-tetrahydroquinoline-1-carbonyl)-N-(3-(trifluoromethyl)phenyl)benzenesulfonamide] | 62
4 | COc1ccc(S(=O)(=O)N2CCc3ccccc32)cc1C(=O)Nc1cccc(C#N)c1 [I-442, N-(3-cyanophenyl)-5-(indolin-1-ylsulfonyl)-2-methoxybenzamide] | 61
5 | O=C(Nc1cccc(F)c1)c1cccc(S(=O)(=O)N2CCc3ccccc32)c1 [I-443, N-(3-fluorophenyl)-3-(indolin-1-ylsulfonyl)benzamide] | 61
6 | O=C(Nc1cccc2cccnc12)c1cccc(S(=O)(=O)N2CCc3ccccc32)c1 [I-444, 3-(indolin-1-ylsulfonyl)-N-(quinolin-8-yl)benzamide] | 61
7 | CCc1ccccc1NC(=O)c1cccc(S(=O)(=O)N2c3ccccc3CC2C)c1 (stereo not shown) [I-445, N-(2-ethylphenyl)-3-((2-methylindolin-1-yl)sulfonyl)benzamide] | 61
8 | O=C(Nc1cccc(S(=O)(=O)N2CCCCC2)c1)c1cccc(S(=O)(=O)N2CCc3ccccc32)c1 [I-446, 3-(indolin-1-ylsulfonyl)-N-(3-(piperidin-1-ylsulfonyl)phenyl)benzamide] | 61
9 | COc1ccc(S(=O)(=O)N2CCc3ccccc32)cc1C(=O)Nc1cc(C(F)(F)F)cc(C(F)(F)F)c1 [I-447, N-(3,5-bis(trifluoromethyl)phenyl)-5-(indolin-1-ylsulfonyl)-2-methoxybenzamide] | 61
10 | O=C(c1ccc(Cl)c(S(=O)(=O)N2CCc3ccccc32)c1)N1CCc2ccccc21 [I-448, (4-chloro-3-(indolin-1-ylsulfonyl)phenyl)(indolin-1-yl)methanone] | 61
11 | COc1ccc(NC(=O)c2cccc(S(=O)(=O)N3c4ccccc4CC3C)c2)cc1OC (stereo not shown) [I-449, N-(3,4-dimethoxyphenyl)-3-((2-methylindolin-1-yl)sulfonyl)benzamide] | 61
12 | O=C(Nc1ccc(F)c(Cl)c1)c1cccc(S(=O)(=O)Nc2ccc(F)cc2)c1 [I-450, N-(3-chloro-4-fluorophenyl)-3-(N-(4-fluorophenyl)sulfamoyl)benzamide] | 61
13 | O=C(Nc1ccc2c(c1)OCO2)c1cccc(S(=O)(=O)N2CCc3ccccc32)c1 [I-451, N-(benzo[d][1,3]dioxol-5-yl)-3-(indolin-1-ylsulfonyl)benzamide] | 60
14 | Cc1ccc(NC(=O)c2cccc(S(=O)(=O)N3CCc4ccccc43)c2)cc1C [I-452, N-(3,4-dimethylphenyl)-3-(indolin-1-ylsulfonyl)benzamide] | 60
15 | Cc1ccc(NC(=O)c2ccc(Cl)c(S(=O)(=O)N3CCc4ccccc43)c2)cc1 [I-453, 4-chloro-3-(indolin-1-ylsulfonyl)-N-(p-tolyl)benzamide] | 60
16 | COc1ccc(NC(=O)c2cccc(S(=O)(=O)N3CCc4ccccc43)c2)cc1 [I-454, 3-(indolin-1-ylsulfonyl)-N-(4-methoxyphenyl)benzamide] | 60
17 | Cc1c(Cl)cccc1NC(=O)c1cccc(S(=O)(=O)N2CCc3ccccc32)c1 [I-455, N-(3-chloro-2-methylphenyl)-3-(indolin-1-ylsulfonyl)benzamide] | 60
18 | NC(=O)c1cccc(NC(=O)c2cccc(S(=O)(=O)N3CCc4ccccc43)c2)c1 [I-456, N-(3-carbamoylphenyl)-3-(indolin-1-ylsulfonyl)benzamide] | 60
19 | O=C(c1cccc(S(=O)(=O)N(Cc2ccccc2)c2cccc(C(F)(F)F)c2)c1)N1CCc2ccccc21 [I-457, N-benzyl-3-(indoline-1-carbonyl)-N-(3-(trifluoromethyl)phenyl)benzenesulfonamide] | 60
20 | CC1Cc2ccccc2N1S(=O)(=O)c1cccc(C(=O)Nc2cccc(S(N)(=O)=O)c2)c1 (stereo not shown) [I-458, 3-((2-methylindolin-1-yl)sulfonyl)-N-(3-sulfamoylphenyl)benzamide] | 60
21 | Cc1ccc(NS(=O)(=O)c2ccc(Cl)c(C(=O)N3CCc4ccccc43)c2)cc1C [I-459, 4-chloro-N-(3,4-dimethylphenyl)-3-(indoline-1-carbonyl)benzenesulfonamide] | 60
22 | COc1ccc(NS(=O)(=O)c2cccc(C(=O)Nc3ccc(OC(F)F)cc3)c2)cc1 [I-460, N-(4-(difluoromethoxy)phenyl)-3-(N-(4-methoxyphenyl)sulfamoyl)benzamide] | 60

Row | SMILES | % Inhibition of Apyrase [%]
23 | COc1ccccc1NS(=O)(=O)c1cccc(C(=O)Nc2c(C)nc(O)nc2O)c1 [I-461, N-(2,4-dihydroxy-6-methylpyrimidin-5-yl)-3-(N-(2-methoxyphenyl)sulfamoyl)benzamide] | 59
24 | N#Cc1cccc(NC(=O)c2ccc(Cl)c(S(=O)(=O)N3CCc4ccccc43)c2)c1 [I-462, 4-chloro-N-(3-cyanophenyl)-3-(indolin-1-ylsulfonyl)benzamide] | 59
25 | O=C(Nc1ccccc1OC(F)F)c1ccc(Cl)c(S(=O)(=O)N2CCc3ccccc32)c1 [I-463, 4-chloro-N-(2-(difluoromethoxy)phenyl)-3-(indolin-1-ylsulfonyl)benzamide] | 59
26 | CC1Cc2ccccc2N1C(=O)c1cccc(S(=O)(=O)N(C)c2cccc(Cl)c2)c1 (stereo not shown) [I-464, N-(3-chlorophenyl)-N-methyl-3-(2-methylindoline-1-carbonyl)benzenesulfonamide] | 59
27 | CC1Cc2ccccc2N1S(=O)(=O)c1cccc(C(=O)N2CCCc3ccccc32)c1 (stereo not shown) [I-465, (3,4-dihydroquinolin-1(2H)-yl)(3-((2-methylindolin-1-yl)sulfonyl)phenyl)methanone] | 59
28 | Cc1ccccc1NC(=O)c1cccc(S(=O)(=O)N2c3ccccc3CC2C)c1 (stereo not shown) [I-466, 3-((2-methylindolin-1-yl)sulfonyl)-N-(o-tolyl)benzamide] | 59
29 | COc1ccccc1NC(=O)c1cccc(S(=O)(=O)N2CCc3ccccc32)c1 [I-467, 3-(indolin-1-ylsulfonyl)-N-(2-methoxyphenyl)benzamide] | 59
30 | CSc1cccc(NC(=O)c2cccc(S(=O)(=O)N3c4ccccc4CC3C)c2)c1 (stereo not shown) [I-468, 3-((2-methylindolin-1-yl)sulfonyl)-N-(3-(methylthio)phenyl)benzamide] | 59
31 | CC1Cc2ccccc2N1S(=O)(=O)c1cccc(C(=O)Nc2cc(F)ccc2F)c1 (stereo not shown) [I-469, N-(2,5-difluorophenyl)-3-((2-methylindolin-1-yl)sulfonyl)benzamide] | 59
32 | O=C(Nc1ccc(Br)cc1F)c1cccc(S(=O)(=O)N2CCc3ccccc32)c1 [I-470, N-(4-bromo-2-fluorophenyl)-3-(indolin-1-ylsulfonyl)benzamide] | 59
33 | COc1ccc(S(=O)(=O)N2CCc3ccccc32)cc1C(=O)Nc1ccc(Br)c(C)c1 [I-471, N-(4-bromo-3-methylphenyl)-5-(indolin-1-ylsulfonyl)-2-methoxybenzamide] | 59
34 | O=C(Nc1ccc(F)c(F)c1)c1cccc(S(=O)(=O)N2CCc3ccccc32)c1 [I-472, N-(3,4-difluorophenyl)-3-(indolin-1-ylsulfonyl)benzamide] | 59
35 | COc1ccc(C)cc1NC(=O)c1cccc(S(=O)(=O)N2CCc3ccccc32)c1 [I-473, 3-(indolin-1-ylsulfonyl)-N-(2-methoxy-5-methylphenyl)benzamide] | 59
36 | O=C(c1cc(S(=O)(=O)Nc2cccc(C(F)(F)F)c2)ccc1Cl)N1CCCc2ccccc21 [I-474, 4-chloro-3-(1,2,3,4-tetrahydroquinoline-1-carbonyl)-N-(3-(trifluoromethyl)phenyl)benzenesulfonamide] | 59
37 | O=C(c1cccc(S(=O)(=O)Nc2cccc(C(F)(F)F)c2)c1)N1CCc2ccccc21 [I-475, 3-(indoline-1-carbonyl)-N-(3-(trifluoromethyl)phenyl)benzenesulfonamide] | 59
38 | CC1Cc2ccccc2N1S(=O)(=O)c1cccc(C(=O)Nc2ccccc2OC(F)(F)F)c1 (stereo not shown) [I-476, 3-((2-methylindolin-1-yl)sulfonyl)-N-(2-(trifluoromethoxy)phenyl)benzamide] | 58
39 | CN(c1ccccc1)S(=O)(=O)c1cc(C(=O)N2CCc3cc([N+](=O)[O-])ccc32)ccc1Cl [I-477, 2-chloro-N-methyl-5-(5-nitroindoline-1-carbonyl)-N-phenylbenzenesulfonamide] | 58
40 | O=C(Nc1ccc(S(=O)(=O)NC2CC2)cc1)c1cccc(S(=O)(=O)N2CCc3ccccc32)c1 [I-478, N-(4-(N-cyclopropylsulfamoyl)phenyl)-3-(indolin-1-ylsulfonyl)benzamide] | 58
41 | COc1ccc(N(C)S(=O)(=O)c2cccc(C(=O)Nc3ccc4c(c3)OCO4)c2)cc1 [I-479, N-(benzo[d][1,3]dioxol-5-yl)-3-(N-(4-methoxyphenyl)-N-methylsulfamoyl)benzamide] | 58
42 | CC(=O)Nc1ccc(NC(=O)c2cccc(S(=O)(=O)N3CCc4ccccc43)c2)cc1 [I-480, N-(4-acetamidophenyl)-3-(indolin-1-ylsulfonyl)benzamide] | 58
43 | Cc1ccc(N(C)S(=O)(=O)c2cccc(C(=O)N3c4ccccc4CC3C)c2)cc1 (stereo not shown) [I-481, N-methyl-3-(2-methylindoline-1-carbonyl)-N-(p-tolyl)benzenesulfonamide] | 58

Source: patent US12685312B2, “Sulfonamide apyrase inhibitors” (Texas Crop Science, Inc., priority 2022, dated 2026)
